# According to ChEMBL document CHEMBL5661980, “Discovery of OSI-906: a selective and orally efficacious dual inhibitor of the IGF-1 receptor and insulin receptor” (Future Med Chem, 2009):
# Key:
# Cytochrome P450 2D6 = Cytochrome P450 2D6 (Homo sapiens, UniProt P10635); test: Inhibition of CYP2D6 (unknown origin) in presence of NADPH generating system incubated for 20 mins by luminescent method; type: ADME
# [1] = AUC last in CD-1 mouse measured at 5 mg/kg, po for 1 to 24 hrs by HPLC-MS/MS analysis; type: ADME, organism-based; details: in vivo, time 1-24 hrs
# [2] = Elimination half life in Beagle dog measured at 2.5 mg/kg, iv for 1 to 24 hrs by HPLC-MS/MS analysis; type: ADME, organism-based, Canis lupus familiaris; details: in vivo, time 1-24 hrs, read-out: beta t1/2 (converted)
# [3] = Toxicity in athymic nu/nu CD-1 mouse allografted with mouse 3T3 cells expressing human IGF-1R assessed as loss in body weight at 25 mg/kg, po for 12 days relative to control; type: organism-based, NIH3T3; details: in vivo, 288 h, time 12 day
# [4] = Cmax in Sprague-Dawley rat measured at 12.5 mg/kg, po for 1 to 24 hrs by HPLC-MS/MS analysis; type: ADME, organism-based; details: in vivo, time 1-24 hrs
# [5] = Plasma concentration in athymic nu/nu CD-1 mouse allografted with mouse 3T3 cells expressing human IGF-1R at 75 mg/kg, po measured after 24 hrs; type: ADME, organism-based, NIH3T3
# NIH3T3 = test: Antitumor activity against mouse 3T3 cells allografted in athymic nu/nu CD-1 mouse assessed as tumor growth inhibition at 25 mg/kg, po for 12 days relative to control; type: functional; details: NIH3T3, 288 h, time 12 day, read-out: TGI
# [6] = Oral bioavailability in CD-1 mouse measured at 5 mg/kg for 1 to 24 hrs by HPLC-MS/MS analysis; type: ADME, organism-based; details: in vivo, time 1-24 hrs
# Cytochrome P450 3A4 = Cytochrome P450 3A4 (Homo sapiens, UniProt P08684); test: Inhibition of CYP3A4 (unknown origin) using luciferin as substrate in presence of NADPH generating system incubated for 20 mins by luminescent method; type: ADME
# [7] = AUC last in CD-1 mouse measured at 250 mg/kg, po for 1 to 24 hrs by HPLC-MS/MS analysis; type: ADME, organism-based; details: in vivo, time 1-24 hrs
# [8] = Oral bioavailability in CD-1 mouse measured at 250 mg/kg for 1 to 24 hrs by HPLC-MS/MS analysis; type: ADME, organism-based; details: in vivo, time 1-24 hrs
# [9] = Oral bioavailability in Sprague-Dawley rat measured at 100 mg/kg for 1 to 24 hrs by HPLC-MS/MS analysis; type: ADME, organism-based; details: in vivo, time 1-24 hrs
# [10] = Oral bioavailability in Beagle dog measured at 5 mg/kg for 1 to 24 hrs by HPLC-MS/MS analysis; type: ADME, organism-based, Canis lupus familiaris; details: in vivo, time 1-24 hrs
# [11] = Cmax in CD-1 mouse measured at 250 mg/kg, po for 1 to 24 hrs by HPLC-MS/MS analysis; type: ADME, organism-based; details: in vivo, time 1-24 hrs
# [12] = Cmax in Sprague-Dawley rat measured at 100 mg/kg, po for 1 to 24 hrs by HPLC-MS/MS analysis; type: ADME, organism-based; details: in vivo, time 1-24 hrs
# Sequence of Cytochrome P450 3A4 (P08684 whole entry): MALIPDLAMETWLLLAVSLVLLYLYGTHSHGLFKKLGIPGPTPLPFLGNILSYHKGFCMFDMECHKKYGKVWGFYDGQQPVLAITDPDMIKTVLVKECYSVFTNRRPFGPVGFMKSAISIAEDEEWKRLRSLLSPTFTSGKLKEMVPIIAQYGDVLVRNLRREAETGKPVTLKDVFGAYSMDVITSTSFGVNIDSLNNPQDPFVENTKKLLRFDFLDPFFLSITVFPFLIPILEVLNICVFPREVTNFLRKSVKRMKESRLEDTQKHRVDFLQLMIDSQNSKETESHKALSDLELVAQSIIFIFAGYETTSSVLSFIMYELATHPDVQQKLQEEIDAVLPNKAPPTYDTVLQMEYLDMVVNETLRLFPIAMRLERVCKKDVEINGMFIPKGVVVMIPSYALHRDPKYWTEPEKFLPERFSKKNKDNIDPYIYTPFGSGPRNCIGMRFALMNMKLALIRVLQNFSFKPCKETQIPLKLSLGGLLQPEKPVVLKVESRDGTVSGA
# Sequence of Cytochrome P450 2D6 (P10635 whole entry): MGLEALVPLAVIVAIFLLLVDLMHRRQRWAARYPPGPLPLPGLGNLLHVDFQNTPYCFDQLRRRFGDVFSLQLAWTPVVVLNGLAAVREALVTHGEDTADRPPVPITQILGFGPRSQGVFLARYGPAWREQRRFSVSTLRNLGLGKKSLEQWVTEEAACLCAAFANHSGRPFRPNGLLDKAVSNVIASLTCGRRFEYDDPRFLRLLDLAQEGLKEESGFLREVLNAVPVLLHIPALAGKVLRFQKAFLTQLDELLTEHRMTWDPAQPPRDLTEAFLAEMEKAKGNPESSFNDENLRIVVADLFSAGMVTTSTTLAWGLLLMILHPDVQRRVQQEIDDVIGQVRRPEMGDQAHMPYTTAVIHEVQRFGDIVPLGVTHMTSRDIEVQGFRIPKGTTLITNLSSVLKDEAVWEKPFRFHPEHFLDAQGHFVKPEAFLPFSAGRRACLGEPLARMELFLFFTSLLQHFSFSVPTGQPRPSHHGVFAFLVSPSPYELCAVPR
smiles,measurement,setting,value
C[C@]1(O)C[C@@H](c2nc(-c3ccc4ccc(-c5ccccc5)nc4c3)c3c(N)nccn32)C1 [LINSITINIB],IC50,Cytochrome P450 2D6,> 10 µM
same,AUC(0-t),[1],6.77 µg·h/mL
same,half-life,[2],1.18 h
same,Activity,[3],< 10%
same,Cmax,[4],10 µM
same,concentration at 24 h,[5],4.77 µM
same,inhibition in vivo at 25 mg/kg,NIH3T3,60%
same,bioavailability,[6],98%
same,IC50,Cytochrome P450 3A4,> 10 µM
same,AUC(0-t),[7],317 µg·h/mL
same,bioavailability,[8],> 100%
same,bioavailability,[9],92%
same,bioavailability,[10],64%
same,Cmax,[11],42 µM
same,Cmax,[12],34.6 µM
